{
  "source": "patent US20120029187A1",
  "about": "“HALOALKYLSULFONANILIDE DERIVATIVE” (Nissan Chemical Industries, Ltd., priority 2009, published 2012)",
  "format_in_all_cases": "in vivo",
  "key": {"giant foxtail [1]": {"test_system": "giant foxtail", "assay": "Test Example 4: herbicidal effect in foliage treatment", "settings": "dose 3.2 g/a, three weeks after application", "in_short": "(§1)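 A uniform foliar spray of emulsifiable concentrate, diluted with water to give the stated g/a dose, was applied to plants raised for 14 days from seed in sterilized diluvial soil at 25 to 30° C. Herbicidal effects were scored three weeks later.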"}, "barnyardgrass [2]": {"test_system": "barnyardgrass", "assay": "Test Example 4: herbicidal effect in foliage treatment", "settings": "dose 3.2 g/a, three weeks after application", "in_short": "as §1"}, "large crabgrass [3]": {"test_system": "large crabgrass", "assay": "Test Example 4: herbicidal effect in foliage treatment", "settings": "dose 3.2 g/a, three weeks after application", "in_short": "as §1"}, "Italian ryegrass [4]": {"test_system": "Italian ryegrass", "assay": "Test Example 4: herbicidal effect in foliage treatment", "settings": "dose 3.2 g/a, three weeks after application", "in_short": "as §1"}, "posumbu knotweed [5]": {"test_system": "posumbu knotweed", "assay": "Test Example 4: herbicidal effect in foliage treatment", "settings": "dose 3.2 g/a, three weeks after application", "in_short": "as §1"}, "beadstraw": {"test_system": "beadstraw", "assay": "Test Example 4: herbicidal effect in foliage treatment", "settings": "dose 3.2 g/a, three weeks after application", "in_short": "as §1"}, "common lambsquater [6]": {"test_system": "common lambsquater", "assay": "Test Example 4: herbicidal effect in foliage treatment", "settings": "dose 3.2 g/a, three weeks after application", "in_short": "as §1"}, "redroot pigweed [7]": {"test_system": "redroot pigweed", "assay": "Test Example 4: herbicidal effect in foliage treatment", "settings": "dose 3.2 g/a, three weeks after application", "in_short": "as §1"}, "water foxtail [8]": {"test_system": "water foxtail", "assay": "Test Example 4: herbicidal effect in foliage treatment", "settings": "dose 3.2 g/a, three weeks after application", "in_short": "as §1"}, "common chickweed [9]": {"test_system": "common chickweed", "assay": "Test Example 4: herbicidal effect in foliage treatment", "settings": "dose 3.2 g/a, three weeks after application", "in_short": "as §1"}, "velvetleaf [10]": {"test_system": "velvetleaf", "assay": "Test Example 4: herbicidal effect in foliage treatment", "settings": "dose 3.2 g/a, three weeks after application", "in_short": "as §1"}, "common ragweed [11]": {"test_system": "common ragweed", "assay": "Test Example 4: herbicidal effect in foliage treatment", "settings": "dose 3.2 g/a, three weeks after application", "in_short": "as §1"}, "transplanted rice": {"test_system": "transplanted rice", "assay": "Test Example 1: preemergence treatment under submerged conditions, effect on crop", "settings": "dose 2.52 g/a", "in_short": "(§2)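 Weed seeds and 2.5-leaf rice seedlings shared each flooded cup of alluvial soil. Dosing, expressed as g per are, was by pouring water-diluted emulsifiable concentrate onto the surface on sowing day. Mortality was graded 0 to 5 after three weeks' growth.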"}, "barnyardgrass [12]": {"test_system": "barnyardgrass", "assay": "Test Example 2: herbicidal effects during the vegetation period under submerged conditions", "settings": "treatment during the vegetation period under submerged conditions; dose 2.52 g/a", "in_short": "(§3)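 Barnyardgrass, bulrush and ducksalad were co-sown in alluvial soil flooded to 4 cm and grown in a greenhouse at 25 to 30° C. At the 1- or 2-leaf stage, water-diluted emulsifiable concentrates went onto the water surface at set doses (g/a). Herbicidal effect was scored three weeks later on a graded scale.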"}, "ducksalad [13]": {"test_system": "ducksalad", "assay": "Test Example 2: herbicidal effects during the vegetation period under submerged conditions", "settings": "treatment during the vegetation period under submerged conditions; dose 2.52 g/a", "in_short": "as §3"}, "bulrush [14]": {"test_system": "bulrush", "assay": "Test Example 2: herbicidal effects during the vegetation period under submerged conditions", "settings": "treatment during the vegetation period under submerged conditions; dose 2.52 g/a", "in_short": "as §3"}, "giant foxtail [15]": {"test_system": "giant foxtail", "assay": "Test Example 3: herbicidal effects in soil treatment", "settings": "dose 3.2 g/a", "in_short": "(§4)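 Seeds were sown in sterilized diluvial soil and covered with about 1.5 cm of soil. Compounds, formulated as emulsifiable concentrates and diluted with water, were sprayed evenly over the soil surface at set doses in g/a. Herbicidal effect was scored on a rating scale three weeks later.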"}, "barnyardgrass [16]": {"test_system": "barnyardgrass", "assay": "Test Example 3: herbicidal effects in soil treatment", "settings": "dose 3.2 g/a", "in_short": "as §4"}, "large crabgrass [17]": {"test_system": "large crabgrass", "assay": "Test Example 3: herbicidal effects in soil treatment", "settings": "dose 3.2 g/a", "in_short": "as §4"}, "Italian ryegrass [18]": {"test_system": "Italian ryegrass", "assay": "Test Example 3: herbicidal effects in soil treatment", "settings": "dose 3.2 g/a", "in_short": "as §4"}, "posumbu knotweed [19]": {"test_system": "posumbu knotweed", "assay": "Test Example 3: herbicidal effects in soil treatment", "settings": "dose 3.2 g/a", "in_short": "as §4"}, "common lambsquater [20]": {"test_system": "common lambsquater", "assay": "Test Example 3: herbicidal effects in soil treatment", "settings": "dose 3.2 g/a", "in_short": "as §4"}, "redroot pigweed [21]": {"test_system": "redroot pigweed", "assay": "Test Example 3: herbicidal effects in soil treatment", "settings": "dose 3.2 g/a", "in_short": "as §4"}, "water foxtail [22]": {"test_system": "water foxtail", "assay": "Test Example 3: herbicidal effects in soil treatment", "settings": "dose 3.2 g/a", "in_short": "as §4"}, "common chickweed [23]": {"test_system": "common chickweed", "assay": "Test Example 3: herbicidal effects in soil treatment", "settings": "dose 3.2 g/a", "in_short": "as §4"}, "velvetleaf [24]": {"test_system": "velvetleaf", "assay": "Test Example 3: herbicidal effects in soil treatment", "settings": "dose 3.2 g/a", "in_short": "as §4"}, "common ragweed [25]": {"test_system": "common ragweed", "assay": "Test Example 3: herbicidal effects in soil treatment", "settings": "dose 3.2 g/a", "in_short": "as §4"}, "barnyardgrass [26]": {"test_system": "barnyardgrass", "assay": "Test Example 1: herbicidal effects in preemergence treatment under submerged conditions", "settings": "dose 2.52 g/a", "in_short": "as §2"}, "ducksalad [27]": {"test_system": "ducksalad", "assay": "Test Example 1: herbicidal effects in preemergence treatment under submerged conditions", "settings": "dose 2.52 g/a", "in_short": "as §2"}, "bulrush [28]": {"test_system": "bulrush", "assay": "Test Example 1: herbicidal effects in preemergence treatment under submerged conditions", "settings": "dose 2.52 g/a", "in_short": "as §2"}},
  "data": [
    {"smiles": "CCOC(=O)N(c1ccccc1CN1COC(C)(CC)CC1=O)S(=O)(=O)C(F)(F)F", "note": "(stereo not drawn) [II-42]", "values": [
      {"measurement": "E: giant foxtail, herbicidal effect", "setting": "giant foxtail [1]", "value": "5 (mortality of 90% or above (nearly complete death))"},
      {"measurement": "A: barnyardgrass, herbicidal effect", "setting": "barnyardgrass [2]", "value": "5 (mortality of 90% or above (nearly complete death))"},
      {"measurement": "D: large crabgrass, herbicidal effect", "setting": "large crabgrass [3]", "value": "3 (mortality of at least 40% and less than 70%)"},
      {"measurement": "H: Italian ryegrass, herbicidal effect", "setting": "Italian ryegrass [4]", "value": "3 (mortality of at least 40% and less than 70%)"},
      {"measurement": "M: posumbu knotweed, herbicidal effect", "setting": "posumbu knotweed [5]", "value": "0 (mortality of less than 5% (almost ineffective))"},
      {"measurement": "O: beadstraw, herbicidal effect", "setting": "beadstraw", "value": "3 (mortality of at least 40% and less than 70%)"},
      {"measurement": "L: common lambsquater, herbicidal effect", "setting": "common lambsquater [6]", "value": "3 (mortality of at least 40% and less than 70%)"},
      {"measurement": "K: redroot pigweed, herbicidal effect", "setting": "redroot pigweed [7]", "value": "0 (mortality of less than 5% (almost ineffective))"},
      {"measurement": "G: water foxtail, herbicidal effect", "setting": "water foxtail [8]", "value": "5 (mortality of 90% or above (nearly complete death))"},
      {"measurement": "N: common chickweed, herbicidal effect", "setting": "common chickweed [9]", "value": "4 (mortality of at least 70% and less than 90%)"},
      {"measurement": "I: velvetleaf, herbicidal effect", "setting": "velvetleaf [10]", "value": "5 (mortality of 90% or above (nearly complete death))"},
      {"measurement": "J: common ragweed, herbicidal effect", "setting": "common ragweed [11]", "value": "3 (mortality of at least 40% and less than 70%)"},
      {"measurement": "a: transplanted rice, effect on crop (evaluation scale 0-5)", "setting": "transplanted rice", "value": "0 (mortality of less than 5% (almost ineffective))"},
      {"measurement": "A: barnyardgrass, herbicidal effect (evaluation scale 0-5)", "setting": "barnyardgrass [12]", "value": "5 (mortality of 90% or above (nearly complete death))"},
      {"measurement": "C: ducksalad, herbicidal effect (evaluation scale 0-5)", "setting": "ducksalad [13]", "value": "5 (mortality of 90% or above (nearly complete death))"},
      {"measurement": "B: bulrush, herbicidal effect (evaluation scale 0-5)", "setting": "bulrush [14]", "value": "5 (mortality of 90% or above (nearly complete death))"},
      {"measurement": "E: giant foxtail, herbicidal effect (evaluation scale 0-5)", "setting": "giant foxtail [15]", "value": "1 (mortality of at least 5% and less than 20%)"},
      {"measurement": "A: barnyardgrass, herbicidal effect (evaluation scale 0-5)", "setting": "barnyardgrass [16]", "value": "5 (mortality of 90% or above (nearly complete death))"},
      {"measurement": "D: large crabgrass, herbicidal effect (evaluation scale 0-5)", "setting": "large crabgrass [17]", "value": "5 (mortality of 90% or above (nearly complete death))"},
      {"measurement": "H: Italian ryegrass, herbicidal effect (evaluation scale 0-5)", "setting": "Italian ryegrass [18]", "value": "5 (mortality of 90% or above (nearly complete death))"},
      {"measurement": "M: posumbu knotweed, herbicidal effect (evaluation scale 0-5)", "setting": "posumbu knotweed [19]", "value": "4 (mortality of at least 70% and less than 90%)"},
      {"measurement": "L: common lambsquater, herbicidal effect (evaluation scale 0-5)", "setting": "common lambsquater [20]", "value": "0 (mortality of less than 5% (almost ineffective))"},
      {"measurement": "K: redroot pigweed, herbicidal effect (evaluation scale 0-5)", "setting": "redroot pigweed [21]", "value": "3 (mortality of at least 40% and less than 70%)"},
      {"measurement": "G: water foxtail, herbicidal effect (evaluation scale 0-5)", "setting": "water foxtail [22]", "value": "5 (mortality of 90% or above (nearly complete death))"},
      {"measurement": "N: common chickweed, herbicidal effect (evaluation scale 0-5)", "setting": "common chickweed [23]", "value": "5 (mortality of 90% or above (nearly complete death))"},
      {"measurement": "I: velvetleaf, herbicidal effect (evaluation scale 0-5)", "setting": "velvetleaf [24]", "value": "5 (mortality of 90% or above (nearly complete death))"},
      {"measurement": "J: common ragweed, herbicidal effect (evaluation scale 0-5)", "setting": "common ragweed [25]", "value": "4 (mortality of at least 70% and less than 90%)"},
      {"measurement": "A: barnyardgrass, herbicidal effect (evaluation scale 0-5)", "setting": "barnyardgrass [26]", "value": "5 (mortality of 90% or above (nearly complete death))"},
      {"measurement": "C: ducksalad, herbicidal effect (evaluation scale 0-5)", "setting": "ducksalad [27]", "value": "5 (mortality of 90% or above (nearly complete death))"},
      {"measurement": "B: bulrush, herbicidal effect (evaluation scale 0-5)", "setting": "bulrush [28]", "value": "5 (mortality of 90% or above (nearly complete death))"}
    ]}
  ]
}
